Experimental data published in US20250347696A1, “SELF-ACTIVATING FÖRSTER RESONANCE ENERGY TRANSFER (saFRET) BIOSENSORS AND METHODS FOR MAKING AND USING THEM” (The Regents of the University of California, priority 2021, published 2025).
Numbering of substitutions follows the chain as printed. “Also recorded” adds a separate entry of the source. Read-outs that look alike come from different tables or passages of the source. Values belong to the molecule of their own block, whether it stands above or below them.

Tests used:
[1] = molecular target: T1, ZAP70 biosensor with kinase-dead domain (saFRETkd) (Homo sapiens, UniProt P43403, K369A); experiment: ZAP70 saFRET biosensor with kinase-dead domain (saFRETkd), control / counter screening; assay type: cell-based; settings: for TAK-659-induced FRET response of ZAP70 saFRET biosensor with kinase-dead domain: kinase-dead (K369A) domain, HEK cells
T1 construct: kinase 327-619 (both KA and KM) was chosen for generating the Zap70 biosensor substrate libraries; expressed in transfected cells; host or cells: HEK cells
T1 sequence (P43403 327-619 K369A): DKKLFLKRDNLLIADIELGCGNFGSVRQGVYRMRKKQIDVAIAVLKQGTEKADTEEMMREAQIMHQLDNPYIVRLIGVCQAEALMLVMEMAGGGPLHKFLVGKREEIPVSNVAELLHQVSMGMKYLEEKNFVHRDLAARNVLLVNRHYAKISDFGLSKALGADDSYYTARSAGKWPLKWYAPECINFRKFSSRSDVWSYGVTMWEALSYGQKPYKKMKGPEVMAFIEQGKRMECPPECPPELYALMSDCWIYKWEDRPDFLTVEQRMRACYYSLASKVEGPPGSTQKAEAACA
Experimental: (§1) We first screened a 96-member kinase inhibitor library to identify efficient inhibitors of ZAP70 kinase. […] After 40 minutes of incubation with inhibitors, the cells were imaged, and the FRET ratio changes of individual inhibitors compared to the solvent control were calculated to identify promising candidates after this primary endpoint screening (FIG. 5B-D). We further exploited a control biosensor with a kinase-dead domain (saFRETkd) for counter screening to eliminate false-positive hits due to auto-fluorescence or other non-specific effects^48.
(§2) Firstly, we transfected HEK293 cells with optimized saFRET biosensor and established a stable cell line. […] HEK293 stable cell line was then cultured in 96 glass bottom wells for approximately 24 hours and then should be ready for high throughput screening (see FIG. 5A, Example 1). We tested this concept by screening an in house kinase inhibitor library (Cayman chemical inc.) and screened a […] kinase inhibitor library to identify efficient inhibitors of ZAP70 kinase. […] After 40 minutes of incubation with inhibitors, the cells were imaged, and the FRET ratio changes of individual inhibitors compared to the solvent control were calculated to identify promising candidates after this primary endpoint screening (see FIG. 5B-G, Example 1). We further exploited a control biosensor with a mutated-kinase dead domain (saFRETkd) for counter screening to eliminate false-positive hits due to auto-fluorescence or other non-specific effects (Simeonov and Davis 2004).

ZAP70 kinase = molecular target: T2, ZAP70 kinase (Homo sapiens, UniProt P43403); settings: for inhibition of ZAP70 activity (FRET ratio change compared to solvent control): 10 μM, 40 minutes of incubation
T2 sequence (P43403 327-619): T1 sequence (P43403 327-619 K369A) with A43K
Experimental: as §1
• a, Schematics of the high throughput drug screening platform. First, the cells cultured in 96-well glass bottom plate were treated either with DMSO or inhibitors from the kinase inhibitor library. After 40 minutes of incubation, the cells were imaged, and the FRET ratio change compared to the control cell was calculated. […] Scale bars, 10 μm. • c, Summary of screening results. […] Error bars, mean±SD. • e, Counter screening using a mutant biosensor with a kinase-dead domain to subtract the noise engendered from non-specific fluorescence. […] Error bars, mean±SEM.
as §2

[2] = molecular target: T3, ZAP70 kinase domain (327-619) (Homo sapiens, UniProt P43403); experiment: ZAP70 saFRET biosensor live-cell FRET imaging in HEK cells; assay type: cell-based; settings: TAK-659 25 μM
T3 construct: The combination of ZAP70 kinase domain (327-619) and a substrate from LATY191; expressed in transfected cells; host or cells: HEK cells
T3 sequence (P43403 327-619): T1 sequence (P43403 327-619 K369A) with A43K
Text: To extend FRET-seq as a general platform to optimize different kinase FRET biosensors in mammalian cells, we further applied this technology to improve the ZAP70 kinase FRET biosensor. […] Similar to the Fyn saFRET biosensor, the FRET change of ZAP70 saFRET biosensor was dominated by the active kinase domain, as evidenced by the observations that the TAK-659-induced dynamic changes (FIG. 3 b,c) and phosphorylation (Supplementary FIG. 5a, or FIG. 11A) were abolished when the kinase domain was replaced by its kinase-dead version (K369A)^41.
Using the established platform for library screening and sequencing, the ZAP70 biosensor candidates selected via the four-dimensional plot were further ranked by the product of Ev (KAH) and Ev (KDL) (FIG. 3D-E). […] The dynamic range of FRET ratio of the biosensors containing […] (SEQ ID NO:113) or […] (SEQ ID NO:114) increased approximately 50% comparing to the parental one, when transiently expressed in HEK cells (FIG. 3G-H). As such, our FRET-seq platform can serve as a general high-throughput approach to engineer FRET biosensor from libraries and develop sensitive kinase biosensors. […]
To increase the specificity of the selected substrates, library with mutated kinase were included. […] The variants which satisfied all conditions were selected (FIG. 3D, Example 1), and their FRET ratio change upon TAK-659 treatment were measured by fluorescence microscope. […]

pLAT (Y191) = pLAT (Y191) in P116-ZAP70 R360P cells; assay type: cell-based, human; settings: inhibitor pre-treatment
Text: (§3) To examine the efficacy of staurosporine and AZD7762 in inhibiting pathological T cell activation, we used a disease model where T cell activation is mediated by ZAP70-R360P mutation, a main cause of a severe human autoimmune syndrome^4. We introduced wild type ZAP70 or the R360P-mutant of ZAP70 into ZAP70-deficient P116 T cells (FIG. 6G). ZAP70-R360P led to enhanced T cell auto-activation compared to wild type ZAP70 (FIG. 6H).
(§4) • a, Experimental scheme and timeline for experiments in b-d. The Jurkat T cells were pre-treated with inhibitors for 30 minutes before anti-TCR stimulation by anti-CD3/CD28 antibodies for 5 minutes. • b, Immunostaining images of pLAT (Y191) in Jurkat T cells with different inhibitor pre-treatments. Scale bars, 10 μm. • c, Quantification of pLAT (Y191) intensity of single cells in different groups. […] Error bars, mean±SD. • d, Quantification of pZAP70 (Y493) intensity of single cells in different groups. […] P116 cells with similar ZAP70-WT or ZAP70-R360P expressions were sorted and isolated for further analysis based on YPet intensity. • h, CD69 expression in P116 cells with or without the expression of ZAP70 (WT) and its mutant (R360P). • i, Quantification of pZAP70 (Y493) intensity of single cells in different P116 groups. […] Scale bars, 10 μm. • k, Quantification of pLAT (Y191) intensity of single cells in P116-ZAP70 R360P cells with different inhibitor pre-treatment. […]

pZAP70 (Y493) [3] = experiment: pZAP70 (Y493) immunostaining in Jurkat T cells after anti-CD3/CD28 stimulation; assay type: cell-based, human; settings: inhibitor pre-treatment 30 minutes, anti-CD3/CD28 5 minutes
Experimental: (§5) We tested the phosphorylation of LAT, a downstream substrate of ZAP70 kinase, and the activation of T cells with the top two identified inhibitors, staurosporine and AZD7762.
(§6) • a, Experimental scheme and timeline for experiments in b-d. The Jurkat T cells were pre-treated with inhibitors for 30 minutes before anti-TCR stimulation by anti-CD3/CD28 antibodies for 5 minutes. • b, Immunostaining images of pLAT (Y191) in Jurkat T cells with different inhibitor pre-treatments. Scale bars, 10 μm. • c, Quantification of pLAT (Y191) intensity of single cells in different groups. (n>150 for each group, One-way ANOVA, ****P<0.0001). Error bars, mean±SD. • d, Quantification of pZAP70 (Y493) intensity of single cells in different groups. (n>200 for each group, One-way ANOVA, ****P<0.0001). […] P116 cells with similar ZAP70-WT or ZAP70-R360P expressions were sorted and isolated for further analysis based on YPet intensity. • h, CD69 expression in P116 cells with or without the expression of ZAP70 (WT) and its mutant (R360P). • i, Quantification of pZAP70 (Y493) intensity of single cells in different P116 groups. […] Scale bars, 10 μm. • k, Quantification of pLAT (Y191) intensity of single cells in P116-ZAP70 R360P cells with different inhibitor pre-treatment. […]

[4] = tested on: phosphorylated LAT (Y191); experiment: pLAT (Y191) immunostaining in Jurkat T cells after anti-CD3/CD28 stimulation; assay type: cell-based, human; settings: inhibitor pre-treatment 30 minutes, anti-CD3/CD28 5 minutes
Experimental: as §5, §6

CD69 expression [5] = experiment: CD69 expression by flow cytometry in T cells after anti-TCR stimulation; assay type: cell-based, human; settings: inhibitor pre-treatment
Experimental: as §5, §6

pZAP70 (Y493) [6] = experiment: pZAP70 (Y493) in P116-ZAP70 R360P cells; assay type: cell-based, human; settings: inhibitor pre-treatment
Text: as §3, §4

CD69 expression [7] = experiment: CD69 expression by flow cytometry in P116-ZAP70-R360P cells; assay type: cell-based, human; settings: inhibitor pre-treatment
Text: as §3, §4

FRET ratio change with saFRETkd in counter screening ([1]; 10 μM library inhibitors, kinase-dead biosensor): nonspecific reduction of FRET ratio
Structure (SMILES): Cc1[nH]c(/C=C2\C(=O)Nc3ccc(S(=O)(=O)Cc4c(Cl)cccc4Cl)cc32)c(C)c1C(=O)N1CCC[C@@H]1CN1CCCC1 [PHA665752]

Structure (SMILES): Cn1cc(-c2nc(N[C@@H]3CCCC[C@@H]3N)c(F)c3c2C(=O)NC3)cn1 [TAK-659]
inhibition of ZAP70 activity (FRET ratio change compared to solvent control) (ZAP70 kinase; listed as TAK659): could not reduce the FRET ratio significantly | average FRET ratio reduction (ZAP70 kinase; 25 μM, stable HEK cell line, ZAP70 saFRET biosensor): approximately 25% | TAK-659-induced FRET response of ZAP70 saFRET biosensor with kinase-dead domain [1]: abolished; also recorded: did not show any response | TAK-659-induced FRET response of ZAP70 saFRET biosensor with kinase-dead domain ([1]; listed as TAK659): no response | FRET ratio response of ZAP70 saFRET biosensor (active kinase domain) to inhibitor [2]: specifically responded; also recorded: significant FRET ratio change

Structure (SMILES): CN[C@@H]1C[C@H]2O[C@@](C)([C@@H]1OC)n1c3ccccc3c3c4c(c5c6ccccc6n2c5c31)C(=O)NC4 [Staurosporine]
phosphorylation of LAT (Y191) (pLAT (Y191)): significantly inhibited | inhibition of ZAP70 activity (FRET ratio change compared to solvent control) (ZAP70 kinase): effectively inhibit | phosphorylated ZAP70 (Y493) (pZAP70 (Y493) [3]): Significant reductions | phosphorylated LAT (Y191) [4]: Significant reductions | expression of CD69 (CD69 expression [5]): suppressed | phosphorylation of ZAP70 (pZAP70 (Y493) [6]): significantly inhibited | activation of T cells marked by CD69 (CD69 expression [7]): significantly inhibited

Structure (SMILES): CC(C)(C)n1nc(-c2ccc(Cl)cc2)c2c(N)ncnc21 [PP2]
FRET ratio response of ZAP70 saFRET biosensor (active kinase domain) to inhibitor [2]: not

Structure (SMILES): NC(=O)Nc1cc(-c2cccc(F)c2)sc1C(=O)N[C@H]1CCCNC1 [AZD7762]
phosphorylation of LAT (Y191) (pLAT (Y191)): significantly inhibited | inhibition of ZAP70 activity (FRET ratio change compared to solvent control) (ZAP70 kinase): effectively inhibit | phosphorylated ZAP70 (Y493) (pZAP70 (Y493) [3]): Significant reductions | phosphorylated LAT (Y191) [4]: Significant reductions | expression of CD69 (CD69 expression [5]): suppressed | phosphorylation of ZAP70 (pZAP70 (Y493) [6]): significantly inhibited | activation of T cells marked by CD69 (CD69 expression [7]): significantly inhibited

Structure (SMILES): COc1ccc2cc(-c3nc(-c4ccc([S+](C)[O-])cc4)[nH]c3-c3ccncc3)ccc2c1 (stereo not shown) [Tie2 kinase inhibitor]
inhibition of ZAP70 activity (FRET ratio change compared to solvent control) (ZAP70 kinase): effectively inhibit
